From patent US12461078B2, “Compounds for use in system suitability testing of inert LC systems and columns” (priority 2020, dated 2025)

Columns and labels:
[1] = Hydrolytic and storage stability of nucleotide analog; type: physicochemical
[2] = cited from earlier work

Row | SMILES | resistance to hydrolysis / storage stability [1] | Log P [2]
1 | Nc1ncnc2c1ncn2[C@@H]1O[C@H](COP(=O)(O)CP(=O)(O)O)[C@@H](O)[C@H]1O [AMPcP, Adenosine 5′-(α, β-methylene)diphosphate] | resistant to hydrolysis and be stable for long-term storage and repeat use | −4.8
2 | Nc1ncnc2c1ncn2[C@@H]1O[C@H](COP(=O)(O)OP(=O)(O)OP(=O)(O)O)[C@@H](O)[C@H]1O [ATP, adenosine-5′-triphosphate] | – | −5.5
